Converted amounts (≈) assume the structure as drawn.
System: Babesia gibsoni
Test: Antibabesial activity against Babesia gibsoni
Format: functional, organism-based

SMILES	IC50 [µg/mL]
COC(=O)[C@]12OC[C@]34[C@H]([C@@H](O)[C@@H]1O)[C@@]1(C)CC(=O)C(O)=C(C)[C@@H]1C[C@H]3OC(=O)[C@H](OC(=O)/C=C(\C)C(C)(C)O)[C@@H]24 [BRUCEINE C]	0.107 (≈ 0.19 µM)
COC(=O)[C@]12OC[C@]34[C@H]([C@@H](O)[C@@H]1O)[C@@]1(C)CC(=O)C(O)=C(C)[C@@H]1C[C@H]3OC(=O)[C@H](OC(=O)/C=C(\C)C(C)(C)OC(C)=O)[C@@H]24 [BRUCEANTINOL]	0.012 (≈ 0.0198 µM)
CC1=CC(=O)[C@@H](O)[C@]2(C)[C@H]3[C@@H](O)[C@H](O)[C@]4(C)OC[C@@]35[C@@H](C[C@@H]12)OC(=O)[C@H](O)[C@]54O [BRUCEINE D]	0.835 (≈ 2.03 µM)
CC1=C(O)C(=O)C[C@]2(C)[C@H]3[C@@H](O)[C@H](O)[C@@]4(C(=O)O)OC[C@@]35[C@@H](C[C@@H]12)OC(=O)[C@H](OC(=O)CC(C)C)[C@@H]45 [BRUCEINE J]	0.742 (≈ 1.46 µM)
COC(=O)[C@@]12OC[C@]34[C@H]([C@@H](O)[C@@H]1O)[C@@]1(C)CC(=O)C(O)=C(C)[C@@H]1C[C@H]3OC(=O)[C@H](OC(C)=O)[C@@H]24 [BRUCEINE B]	0.893 (≈ 1.86 µM)
CC(=O)OC(C)(C)/C(C)=C/C(=O)O[C@H]1C(=O)O[C@@H]2C[C@H]3C(C)=C(O)C(=O)C[C@]3(C)[C@H]3[C@@H](O)[C@H](O)[C@@]4(C(=O)O)OC[C@]32[C@@H]14 [BRUCEANTINOL B]	0.978 (≈ 1.65 µM)
CC1=CC(=O)[C@@H](O)[C@]2(C)[C@H]3[C@@H](O)[C@H](O)[C@]4(CO)OC[C@@]35[C@@H](C[C@@H]12)OC(=O)[C@H](O)[C@]54O [YADANZIOLIDE A]	0.216 (≈ 0.507 µM)
CC(=O)NCC(=O)O.N=C(N)c1ccc(/N=N/Nc2ccc(C(=N)N)cc2)cc1 [DIMINAZEN ACETURATE]	0.103
COC(=O)[C@@]12OC[C@]34[C@H]([C@@H](O)[C@@H]1O)[C@@]1(C)CC(=O)C(O)=C(C)[C@@H]1C[C@H]3OC(=O)[C@H](OC(=O)CC(C)C)[C@@H]24 [BRUCEINE A]	0.004 (≈ 0.00765 µM)
